Measurements taken from PMC3119665, “A New Drug Design Targeting the Adenosinergic System for Huntington's Disease” (PLoS ONE, 2011).

Columns and labels:
[1] = tested on: chymotrypsin-like activity of the proteasome; test: Proteasome activity assay, striatal synaptosomes; type: in vivo; conditions: R6/2 mice, 12 weeks old, 0.05 mg/ml in drinking water
Method: The chymotrypsin-like activity of the proteasome was determined using a specific proteasome substrate [succinyl (suc)-Leu-Leu-Val-Tyr-7-amino-4-methyl coumarin (AMC)] (Sigma-Aldrich, St Louis, MO, USA) as described earlier. In brief, the synaptosome-enriched fraction (10 µg) were incubated with the substrate (40 µM) in 100 µl of proteasome assay buffer [0.05 M Tris-HCl (pH 8.0), 0.5 mM EDTA, 1 mM ATP, and 1 mM DTT] at 37°C for 60 min where the relationship between the incubation time and product formation remained linear. The fluorescence of the released AMC was detected using a Fluorescence Microplate Reader System (Device, Sunnyvale, CA, USA) at 380-nm excitation and 460-nm emission wavelengths.

Angiotensin AT2 = biological target: T1, Angiotensin AT2 (Homo sapiens, UniProt P50052); test: Radioligand binding panel (Table S1); conditions: 10 μM T1-11, n 2
T1 construct: purchased MDS Pharma Services Taiwan

[2] = tested on: Vascular Endothelial Growth Factor (VEGF); test: Radioligand binding panel (Table S1); set-up: species or system human; conditions: 10 μM T1-11, n 2
Lipoxygenase 12-LO = biological target: T2, Lipoxygenase 12-LO (Homo sapiens, UniProt P18054); test: Radioligand binding panel (Table S1); conditions: 10 μM T1-11, n 2
T2 construct: purchased MDS Pharma Services Taiwan

APJ = biological target: T3, APJ (Homo sapiens, UniProt P35414); test: Radioligand binding panel (Table S1); conditions: 10 μM T1-11, n 2
T3 construct: purchased MDS Pharma Services Taiwan

Chemokine CCR5 = biological target: T4, Chemokine CCR5 (Homo sapiens, UniProt P51681); test: Radioligand binding panel (Table S1); conditions: 10 μM T1-11, n 2
T4 construct: purchased MDS Pharma Services Taiwan

[3] = tested on: Inositol Trisphosphate IP3; test: Radioligand binding panel (Table S1); set-up: species or system rat; conditions: 10 μM T1-11, n 2
Purinergic P 2X = test: Radioligand binding panel (Table S1); set-up: species or system rabbit; conditions: 10 μM T1-11, n 2
[4] = tested on: Calcium Channel L-Type, Benzothiazepine; test: Radioligand binding panel (Table S1); set-up: species or system rat; conditions: 10 μM T1-11, n 2
Transporter, GABA = biological target: T5, Transporter, GABA (Rattus norvegicus, UniProt P23978); test: Radioligand binding panel (Table S1); conditions: 10 μM T1-11, n 2
T5 construct: purchased MDS Pharma Services Taiwan

Glutamate, Non-Selective = test: Radioligand binding panel (Table S1); set-up: species or system rat; conditions: 10 μM T1-11, n 2
Histamine H3 = biological target: T6, Histamine H3 (Homo sapiens, UniProt Q9Y5N1); test: Radioligand binding panel (Table S1); conditions: 10 μM T1-11, n 2
T6 construct: purchased MDS Pharma Services Taiwan

Neuropeptide Y Y2 = biological target: T7, Neuropeptide Y Y2 (Homo sapiens, UniProt P49146); test: Radioligand binding panel (Table S1); conditions: 10 μM T1-11, n 2
T7 construct: purchased MDS Pharma Services Taiwan

[5] = tested on: Adrenergic α 2, Non-Selective; test: Radioligand binding panel (Table S1); set-up: species or system rat; conditions: 10 μM T1-11, n 2
[6] = biological target: T8, G Protein-Coupled Receptor, GPR103 (Homo sapiens, UniProt Q96P65); test: Radioligand binding panel (Table S1); conditions: 10 μM T1-11, n 2
T8 construct: purchased MDS Pharma Services Taiwan

Melatonin MT2 = biological target: T9, Melatonin MT2 (Homo sapiens, UniProt P49286); test: Radioligand binding panel (Table S1); conditions: 10 μM T1-11, n 2
T9 construct: purchased MDS Pharma Services Taiwan

Chemokine CCR2B = biological target: T10, Chemokine CCR2B (Homo sapiens, UniProt P41597); test: Radioligand binding panel (Table S1); conditions: 10 μM T1-11, n 2
T10 construct: purchased MDS Pharma Services Taiwan

mutant Htt aggregates = test: Striatal Htt aggregates (filter retardation assay, immunofluorescence); type: in vivo; conditions: R6/2 mice, 12 weeks old, 0.05 mg/ml in drinking water
Method: SDS-insoluble mutant Htt aggregates were detected and quantified as described. A filter retardation assay was performed as described previously. Blots were blocked with 5% skim milk in phosphate-buffered saline (PBS) and incubated with an anti-Htt antibody (EM48, 1∶500; Chemicon International, Temecula, CA, USA) at 4°C overnight followed by the corresponding secondary antibody for 1 h at room temperature. Immunoreactive bands were detected by enhanced chemiluminescence (Pierce) and recorded using Kodak XAR-5 film.
Coronal serial sections (20 µm) containing the striatum (interaural 5.34 mm/bregma 1.54 mm to interaural 3.7 mm/bregma −0.1 mm) were immunohistochemically stained as described previously. Brain sections were blocked with normal goat serum and incubated overnight with an anti-Htt antibody (EM48, 1∶500) at 4°C, followed by a 2 h-incubation with a goat anti-mouse IgG conjugated to Alexa Fluor® 568 at room temperature. The nuclei were stained with Hoechst 33258. The patterns of immunostaining were analyzed with a laser confocal microscope (LSM510, Carl Zeiss MicroImaging Inc, Germany). Five different brain sections of each animal were analyzed. At least 2000 cells from each animal were used to quantify the sizes of mHtt aggregates using ImageJ software (http://rsbweb.nih.gov/ij/; Research Services Branch of the National Institute of Mental Health, Bethesda, MD, USA).

Tachykinin NK2 = biological target: T11, Tachykinin NK2 (Homo sapiens, UniProt P21452); test: Radioligand binding panel (Table S1); conditions: 10 μM T1-11, n 2
T11 construct: purchased MDS Pharma Services Taiwan

Muscarinic M5 = biological target: T12, Muscarinic M5 (Homo sapiens, UniProt P08912); test: Radioligand binding panel (Table S1); conditions: 10 μM T1-11, n 2
T12 construct: purchased MDS Pharma Services Taiwan

Transporter, Choline = biological target: T13, Transporter, Choline (Rattus norvegicus, UniProt Q9JMD7); test: Radioligand binding panel (Table S1); conditions: 10 μM T1-11, n 2
T13 construct: purchased MDS Pharma Services Taiwan

[7] = biological target: T14, Corticotropin Releasing Factor, CRF1 (Homo sapiens, UniProt P34998); test: Radioligand binding panel (Table S1); conditions: 10 μM T1-11, n 2
T14 construct: purchased MDS Pharma Services Taiwan

Colchicine = test: Radioligand binding panel (Table S1); set-up: species or system rat; conditions: 10 μM T1-11, n 2
Method: Radoligand binding assays were performed by MDS Pharma Services Taiwan (Taipei, Taiwan) using standard binding protocols. For the binding assay of the A2AR [67], membrane proteins collected from HEK293 cells overexpressing the human A2AR were incubated in reaction buffer [50 mM Tris-HCl (pH 7.4), 10 mM MgCl2, 1 mM EDTA, and 2 U/mL adenosine deaminase] containing ^3H-CGS21680 (50 nM) for 90 min at 25°C. Nonspecific binding was assessed in the presence of 50 µM adenosine- 5′-N-ethylcarboxamide. […] Nonspecific binding was assessed in the presence of 1 µM IB-MECA (Tocris Bioscience, Ellisville, MS, USA).

Chemokine CCR4 = biological target: T15, Chemokine CCR4 (Homo sapiens, UniProt P51679); test: Radioligand binding panel (Table S1); conditions: 10 μM T1-11, n 2
T15 construct: purchased MDS Pharma Services Taiwan

Phosphodiesterase PDE1 = test: Radioligand binding panel (Table S1); set-up: species or system bovine; conditions: 10 μM T1-11, n 2
Orexin OX 2 = biological target: T16, Orexin OX 2 (Homo sapiens, UniProt O43614); test: Radioligand binding panel (Table S1); conditions: 10 μM T1-11, n 2
T16 construct: purchased MDS Pharma Services Taiwan

[8] = tested on: Calcium Channel L-Type, Dihydropyridine; test: Radioligand binding panel (Table S1); set-up: species or system rat; conditions: 10 μM T1-11, n 2
[9] = biological target: T17, Serotonin (5-Hydroxytryptamine) 5-HT6 (Homo sapiens, UniProt P50406); test: Radioligand binding panel (Table S1); conditions: 10 μM T1-11, n 2
T17 construct: purchased MDS Pharma Services Taiwan

Bombesin BB1 = biological target: T18, Bombesin BB1 (Homo sapiens, UniProt P28336); test: Radioligand binding panel (Table S1); conditions: 10 μM T1-11, n 2
T18 construct: purchased MDS Pharma Services Taiwan
T18 sequence (P28336 whole entry): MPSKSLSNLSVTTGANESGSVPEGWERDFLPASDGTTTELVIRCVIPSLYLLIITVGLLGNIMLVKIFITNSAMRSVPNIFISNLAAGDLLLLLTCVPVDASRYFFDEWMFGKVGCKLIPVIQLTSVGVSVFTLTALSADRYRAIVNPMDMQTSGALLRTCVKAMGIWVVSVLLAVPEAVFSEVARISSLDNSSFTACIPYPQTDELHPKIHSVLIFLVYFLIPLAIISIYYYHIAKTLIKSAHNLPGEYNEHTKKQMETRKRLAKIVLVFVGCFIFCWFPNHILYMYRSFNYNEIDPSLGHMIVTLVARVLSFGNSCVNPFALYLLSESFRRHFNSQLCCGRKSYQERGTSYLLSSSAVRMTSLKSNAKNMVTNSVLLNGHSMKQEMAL

T1 sequence (P50052 whole entry): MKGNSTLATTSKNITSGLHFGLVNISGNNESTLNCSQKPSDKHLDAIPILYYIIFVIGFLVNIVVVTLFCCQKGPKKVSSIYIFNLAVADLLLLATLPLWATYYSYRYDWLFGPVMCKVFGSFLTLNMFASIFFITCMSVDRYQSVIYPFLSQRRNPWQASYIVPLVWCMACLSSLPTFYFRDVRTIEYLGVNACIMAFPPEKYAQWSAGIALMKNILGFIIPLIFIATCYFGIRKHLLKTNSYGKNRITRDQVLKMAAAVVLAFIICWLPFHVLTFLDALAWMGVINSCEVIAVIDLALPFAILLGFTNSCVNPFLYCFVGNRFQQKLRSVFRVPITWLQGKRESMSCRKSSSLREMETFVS
T16 sequence (O43614 whole entry): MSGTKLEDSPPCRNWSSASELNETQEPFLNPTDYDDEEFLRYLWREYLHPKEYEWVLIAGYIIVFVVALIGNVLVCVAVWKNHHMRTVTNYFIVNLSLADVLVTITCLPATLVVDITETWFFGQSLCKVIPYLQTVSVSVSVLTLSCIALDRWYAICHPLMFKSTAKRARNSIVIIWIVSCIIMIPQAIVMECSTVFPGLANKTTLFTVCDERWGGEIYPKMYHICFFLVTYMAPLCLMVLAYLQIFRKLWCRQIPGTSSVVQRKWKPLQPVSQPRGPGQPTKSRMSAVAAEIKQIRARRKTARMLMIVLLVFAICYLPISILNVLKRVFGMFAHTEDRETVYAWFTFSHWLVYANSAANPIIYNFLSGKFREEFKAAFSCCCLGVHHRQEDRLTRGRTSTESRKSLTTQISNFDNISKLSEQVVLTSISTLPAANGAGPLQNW
T2 sequence (P18054 whole entry): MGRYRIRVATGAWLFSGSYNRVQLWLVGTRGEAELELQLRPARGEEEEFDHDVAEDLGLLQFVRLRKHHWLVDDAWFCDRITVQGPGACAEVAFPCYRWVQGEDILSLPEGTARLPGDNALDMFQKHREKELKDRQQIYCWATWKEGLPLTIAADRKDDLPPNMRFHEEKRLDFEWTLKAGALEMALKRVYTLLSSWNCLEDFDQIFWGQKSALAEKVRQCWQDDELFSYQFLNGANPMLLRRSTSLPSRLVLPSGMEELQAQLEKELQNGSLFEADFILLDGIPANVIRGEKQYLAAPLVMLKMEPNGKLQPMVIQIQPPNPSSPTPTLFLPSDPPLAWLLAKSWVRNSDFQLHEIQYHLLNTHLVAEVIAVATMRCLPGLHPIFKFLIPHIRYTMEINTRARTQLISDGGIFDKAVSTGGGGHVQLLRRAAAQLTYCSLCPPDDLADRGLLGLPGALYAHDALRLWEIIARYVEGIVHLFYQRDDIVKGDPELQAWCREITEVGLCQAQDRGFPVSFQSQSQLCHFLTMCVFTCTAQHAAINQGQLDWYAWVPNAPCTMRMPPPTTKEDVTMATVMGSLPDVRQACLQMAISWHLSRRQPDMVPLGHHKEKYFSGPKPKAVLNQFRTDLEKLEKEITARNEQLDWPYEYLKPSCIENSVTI
T13 sequence (Q9JMD7 whole entry): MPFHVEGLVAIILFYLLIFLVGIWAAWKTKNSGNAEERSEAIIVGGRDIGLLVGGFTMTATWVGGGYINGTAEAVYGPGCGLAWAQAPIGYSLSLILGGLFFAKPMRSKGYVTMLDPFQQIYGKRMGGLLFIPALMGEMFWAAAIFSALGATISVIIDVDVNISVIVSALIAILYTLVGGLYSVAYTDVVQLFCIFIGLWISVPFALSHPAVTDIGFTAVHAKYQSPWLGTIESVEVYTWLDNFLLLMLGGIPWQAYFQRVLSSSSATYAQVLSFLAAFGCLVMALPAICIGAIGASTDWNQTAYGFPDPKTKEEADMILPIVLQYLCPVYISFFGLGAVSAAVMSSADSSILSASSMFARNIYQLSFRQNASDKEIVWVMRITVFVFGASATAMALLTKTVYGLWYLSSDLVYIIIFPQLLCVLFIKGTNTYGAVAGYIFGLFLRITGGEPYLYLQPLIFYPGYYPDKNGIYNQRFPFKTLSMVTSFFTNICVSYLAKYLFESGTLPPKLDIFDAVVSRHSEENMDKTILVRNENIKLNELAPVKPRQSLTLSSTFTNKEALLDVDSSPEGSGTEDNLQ
T6 sequence (Q9Y5N1 whole entry): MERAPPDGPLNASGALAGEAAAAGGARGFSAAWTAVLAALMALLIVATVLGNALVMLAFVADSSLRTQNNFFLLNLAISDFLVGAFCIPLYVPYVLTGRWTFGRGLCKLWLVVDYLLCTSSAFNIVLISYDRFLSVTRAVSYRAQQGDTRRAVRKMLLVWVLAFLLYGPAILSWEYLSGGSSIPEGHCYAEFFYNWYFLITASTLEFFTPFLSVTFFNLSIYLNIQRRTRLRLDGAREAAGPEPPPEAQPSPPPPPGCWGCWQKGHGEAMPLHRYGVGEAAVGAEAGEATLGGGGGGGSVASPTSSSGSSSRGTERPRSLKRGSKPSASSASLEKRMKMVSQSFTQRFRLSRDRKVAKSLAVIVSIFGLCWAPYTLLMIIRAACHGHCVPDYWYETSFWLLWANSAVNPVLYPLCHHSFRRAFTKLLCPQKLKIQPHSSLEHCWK
T8 sequence (Q96P65 whole entry): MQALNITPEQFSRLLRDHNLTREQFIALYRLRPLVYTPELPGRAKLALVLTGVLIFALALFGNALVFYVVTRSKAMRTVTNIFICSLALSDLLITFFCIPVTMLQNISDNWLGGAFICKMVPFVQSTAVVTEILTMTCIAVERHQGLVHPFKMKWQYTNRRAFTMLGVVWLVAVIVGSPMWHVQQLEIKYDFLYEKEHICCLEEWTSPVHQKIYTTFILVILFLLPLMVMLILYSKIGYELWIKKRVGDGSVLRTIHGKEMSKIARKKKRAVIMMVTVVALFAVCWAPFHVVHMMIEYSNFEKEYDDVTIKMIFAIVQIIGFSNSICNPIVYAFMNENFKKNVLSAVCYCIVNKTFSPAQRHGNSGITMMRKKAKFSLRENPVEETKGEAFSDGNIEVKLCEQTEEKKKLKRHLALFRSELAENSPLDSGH
T4 sequence (P51681 whole entry): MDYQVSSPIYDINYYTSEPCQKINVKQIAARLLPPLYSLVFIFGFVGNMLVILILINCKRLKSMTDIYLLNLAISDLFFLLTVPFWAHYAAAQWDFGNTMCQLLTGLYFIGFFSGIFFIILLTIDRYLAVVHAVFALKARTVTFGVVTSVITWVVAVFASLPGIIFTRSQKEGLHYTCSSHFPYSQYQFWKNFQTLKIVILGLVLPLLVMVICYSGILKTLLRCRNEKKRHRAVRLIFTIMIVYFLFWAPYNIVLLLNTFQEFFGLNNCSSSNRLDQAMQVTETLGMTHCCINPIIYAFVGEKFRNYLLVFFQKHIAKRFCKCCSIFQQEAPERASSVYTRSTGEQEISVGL
T7 sequence (P49146 whole entry): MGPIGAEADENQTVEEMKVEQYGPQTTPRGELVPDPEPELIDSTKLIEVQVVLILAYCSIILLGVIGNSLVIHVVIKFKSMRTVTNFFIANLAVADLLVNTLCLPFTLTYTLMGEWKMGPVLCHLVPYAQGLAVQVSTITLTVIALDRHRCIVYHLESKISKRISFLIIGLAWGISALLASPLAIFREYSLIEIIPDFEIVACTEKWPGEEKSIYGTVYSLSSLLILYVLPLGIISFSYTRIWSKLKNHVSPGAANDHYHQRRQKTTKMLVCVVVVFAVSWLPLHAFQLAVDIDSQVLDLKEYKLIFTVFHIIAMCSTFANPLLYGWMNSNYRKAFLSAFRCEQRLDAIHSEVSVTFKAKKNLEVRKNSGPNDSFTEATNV
T17 sequence (P50406 whole entry): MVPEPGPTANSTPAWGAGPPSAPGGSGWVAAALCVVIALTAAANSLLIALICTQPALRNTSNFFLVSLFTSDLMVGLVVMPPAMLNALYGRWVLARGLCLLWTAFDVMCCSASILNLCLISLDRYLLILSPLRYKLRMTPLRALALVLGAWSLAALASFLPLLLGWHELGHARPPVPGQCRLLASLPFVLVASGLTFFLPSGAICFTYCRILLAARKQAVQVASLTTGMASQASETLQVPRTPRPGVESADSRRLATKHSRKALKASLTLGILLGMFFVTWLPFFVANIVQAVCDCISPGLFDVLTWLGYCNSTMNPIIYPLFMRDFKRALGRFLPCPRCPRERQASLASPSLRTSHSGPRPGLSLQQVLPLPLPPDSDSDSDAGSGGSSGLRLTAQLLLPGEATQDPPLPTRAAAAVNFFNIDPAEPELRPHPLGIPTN
T15 sequence (P51679 whole entry): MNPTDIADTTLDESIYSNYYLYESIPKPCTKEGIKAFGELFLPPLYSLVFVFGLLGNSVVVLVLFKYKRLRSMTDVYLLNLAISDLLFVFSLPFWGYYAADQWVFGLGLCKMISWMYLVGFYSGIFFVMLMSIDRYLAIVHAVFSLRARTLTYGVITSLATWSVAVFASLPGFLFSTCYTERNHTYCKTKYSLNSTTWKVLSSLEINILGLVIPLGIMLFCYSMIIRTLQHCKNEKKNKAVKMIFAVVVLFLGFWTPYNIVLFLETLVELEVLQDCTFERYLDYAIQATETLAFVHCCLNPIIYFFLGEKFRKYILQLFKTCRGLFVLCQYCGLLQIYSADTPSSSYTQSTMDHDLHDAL

In the case of `OC[C@H]1O[C@@H](n2cnc3c(NCc4ccc(O)cc4)ncnc32)[C@H](O)[C@@H]1O` [T1-11, N ^6-(4-hydroxybenzyl)adenine riboside], the “Chymotrypsin-like activity in striatal synaptosome fractions” value [1] is reported as “significantly enhanced chymotrypsin-like activity in the HD striatum”, the inhibition at 10 µM (Angiotensin AT2) is reported as 3% and the “% Inhibition” value [2] is reported as 16%. For the same compound, the inhibition at 10 µM (Lipoxygenase 12-LO) was 9%, the inhibition at 10 µM (APJ) was 21% and the inhibition at 10 µM (Chemokine CCR5) was -8%. For the same compound, the “% Inhibition” value [3] was 3%, the “% Inhibition” value (Purinergic P 2X) was 11% and the “% Inhibition” value [4] was -8%. The inhibition at 10 µM (Transporter, GABA) was 8%, the “% Inhibition” value (Glutamate, Non-Selective) was -1% and the inhibition at 10 µM (Histamine H3) was 4%. The inhibition at 10 µM (Neuropeptide Y Y2) was 4%, the “% Inhibition” value [5] was 2% and the inhibition at 10 µM [6] was 2%. For the same compound, the inhibition at 10 µM (Melatonin MT2) was -20%, the inhibition at 10 µM (Chemokine CCR2B) was 0% and the “Formation of striatal Htt aggregates” value (mutant Htt aggregates) was “markedly reduced the formation of striatal Htt aggregates”. The inhibition at 10 µM (Tachykinin NK2) was 3%, the inhibition at 10 µM (Muscarinic M5) was 0% and the inhibition at 10 µM (Transporter, Choline) was -10%. For the same compound, the inhibition at 10 µM [7] was 1%, the “% Inhibition” value (Colchicine) was -2% and the inhibition at 10 µM (Chemokine CCR4) was 5%. For the same compound, the “% Inhibition” value (Phosphodiesterase PDE1) was 26%, the inhibition at 10 µM (Orexin OX 2) was -7% and the “% Inhibition” value [8] was -4%. For the same compound, the inhibition at 10 µM [9] was 12% and the inhibition at 10 µM (Bombesin BB1) was -5%.
